Experimental findings from US20050090529A1, “3,5 Disubstituted indazole compounds with nitrogen-bearing 5-membered heterocycles, pharmaceutical compositions, and methods for mediating or inhibiting cell proliferation” (PFIZER INC, priority 2003, published 2005) are described below.

One may read the solubility as the concentration that dissolves in the medium under given conditions. Read a low solubility as little dissolved substance.

≈ marks a conversion by molar mass, not a printed value.

Data set [1] in a line: Measurement of kinetic solubility. Conditions: 100 mM sodium phosphate buffer, pH 6.5, aqueous buffer, kinetic from dmso stock. The procedure: Kinetic solubility was determined with a […] stock solution from the compound(s) of interest. […] Samples and standards were then centrifuged and an aliquot was removed for HPLC analysis. Samples and standards were analyzed by HPLC and a final concentration for the sample was determined based on a one-point calibration curve from the corresponding standard. Results were reported as μg's/mL.

For the next data set, the target named is T1, CDK2/Cyclin A (Homo sapiens, UniProt P24941).
T1 construct: made in house; host or cells: CDK2: insect cells (baculovirus); cyclin A: E. coli
Nature of the data set: Inhibition of CDK2/Cyclin A retinoblastoma kinase activity (apparent Ki). In kind it is biochemical. Conditions: read-out: CDK2 Ki. The procedure: Cyclin-dependent kinase activity was measured by quantifying the enzyme-catalyzed, time-dependent incorporation of radioactive phosphate from [^32P]ATP or [^33P]ATP into a protein substrate. […] Reactions were initiated with enzyme, incubated at 30° C., and terminated after 20 minutes by the addition of ethylenediaminetetraacetic acid (EDTA) to 250 mM. […] Radioactivity was quantified by exposing the dried membranes to a phosphorimager.
Apparent Ki values were measured by assaying enzyme activity in the presence of different inhibitor compound concentrations and subtracting the background radioactivity measured in the absence of enzyme. Inhibition data were fit to an equation for competitive inhibition using Kaleidagraph (Synergy Software), or were fit to an equation for competitive tight-binding inhibition using the software KineTic (BioKin, Ltd.).
A complex of CDK2 and proteolyzed cyclin A was prepared and purified by gel filtration. […] Ki values were measured as described above.

As for `CCNCc1cncc(-c2ccc3[nH]nc(-c4nc(C(=O)NC5CN6CCC5CC6)c[nH]4)c3c2)c1C` (stereo in doubt) [Example 73, N-[(3S)-1-azabicyclo[2.2.2]oct-3-yl]-2-(5-{5-[(ethylamino)methyl]-4-methylpyridin-3-yl}-1H-indazol-3-yl)-1H-imidazole-5-carboxamide], in data set [1], the solubility was more than 0.12 mg/mL. On CDK2/Cyclin A, the Ki lay within 0.05 to 0.2 µM.
In the case of `CCNCc1cncc(-c2ccc3[nH]nc(-c4ncc[nH]4)c3c2)c1C` [Example 1, 5-(5-ethylaminomethyl-4-methylpyridin-3-yl)-3-(1H-imidazol-2-yl)-1H-indazole], the solubility in data set [1] is more than 0.12 mg/mL. The Ki at CDK2/Cyclin A is less than 0.05 µM.
As to `CCNCc1cncc(-c2ccc3[nH]nc(-c4nc(-c5ccccc5)c(C(=O)NCC)[nH]4)c3c2)c1C` [Example 2, 2-[5-(5-Ethylaminomethyl-4-methyl-pyridin-3-yl)-1H-indazol-3-yl]-5-phenyl-3H-imidazole-4-carboxylic acid ethylamide], the solubility in data set [1] lay within 0.02 to 0.12 mg/mL (≈ 41.7 to 250 µM). Besides, the Ki at CDK2/Cyclin A was 0.05 to 0.2 µM.
On the same counts, the results for `CCNCc1cncc(-c2ccc3[nH]nc(-c4nc(-c5ccccc5)c(C(=O)NCCOC)[nH]4)c3c2)c1C` [Example 3, 2-[5-(5-Ethylaminomethyl-4-methyl-pyridin-3-yl)-1H-indazol-3-yl]-5-phenyl-3H-imidazol-4-carboxylic acid (2-methoxy-ethyl)-amide] are 0.02 to 0.12 mg/mL (≈ 39.2 to 235 µM) and 0.05 to 0.2 µM.
In turn, `CCNCc1cncc(-c2ccc3[nH]nc(-c4nc(-c5ccccc5)c(C(=O)N5CCCC5)[nH]4)c3c2)c1C` [Example 4, {2-[5-(5-Ethylaminomethyl-4-methyl-pyridin-3-yl)-1H-indazol-3-yl]-5-phenyl-3H-imidazol-4-yl}-pyrrolidin-1-yl-methanone] showed a solubility in data set [1] of 0.02 to 0.12 mg/mL (≈ 39.6 to 237 µM). In addition, the Ki on CDK2/Cyclin A was in the range of 0.05 to 0.2 µM.
In data set [1], `CCNCc1cncc(-c2ccc3[nH]nc(-c4nc(-c5ccccc5)c(C(=O)NCc5ccccc5)[nH]4)c3c2)c1C` [Example 5, 2-[5-(5-Ethylaminomethyl-4-methyl-pyridin-3-yl)-1H-indazol-3-yl]-5-phenyl-3H-imidazole-4-carboxylic acid benzylamide] registered a solubility of 0.02 to 0.12 mg/mL (≈ 36.9 to 222 µM). Also, the Ki at CDK2/Cyclin A was less than 0.05 µM.
In the same order, the values of `CCNCc1cncc(-c2ccc3[nH]nc(-c4nc(-c5ccccc5)c(C(=O)NCC(C)C)[nH]4)c3c2)c1C` [Example 7, 2-[5-(5-Ethylaminomethyl-4-methyl-pyridin-3-yl)-1H-indazol-3-yl]-5-phenyl-3H-imidazole-4-carboxylic acid isobutyl-amide] are 0.02 to 0.12 mg/mL (≈ 39.4 to 236 µM) and 0.05 to 0.2 µM.
For `CCNCc1cncc(-c2ccc3[nH]nc(-c4nc(-c5ccccc5)c(C(=O)NC5CCCC5)[nH]4)c3c2)c1C` [Example 8, 2-[5-(5-Ethylaminomethyl-4-methyl-pyridin-3-yl)-1H-indazol-3-yl]-5-phenyl-3H-imidazole-4-carboxylic acid cyclopentylamide], the solubility in data set [1] lay in the range of 0.02 to 0.12 mg/mL (≈ 38.5 to 231 µM). Also, the Ki at CDK2/Cyclin A was 0.05 to 0.2 µM.
On the same counts, the results for `CCNCc1cncc(-c2ccc3[nH]nc(-c4nc(-c5ccccc5)c(C(=O)N5CCCCC5)[nH]4)c3c2)c1C` [Example 9, {2-[5-(5-Ethylaminomethyl-4-methyl-pyridin-3-yl)-1H-indazol-3-yl]-5-phenyl-3H-imidazol-4-yl}-piperidin-1-yl-methanone] are 0.02 to 0.12 mg/mL (≈ 38.5 to 231 µM) and more than 0.2 µM.
In the same order, the values of `CCNCc1cncc(-c2ccc3[nH]nc(-c4nc(-c5ccccc5)c(C(=O)N5CCOCC5)[nH]4)c3c2)c1C` [Example 10, {2-[5-(5-Ethylaminomethyl-4-methyl-pyridin-3-yl)-1H-indazol-3-yl]-5-phenyl-3H-imidazol-4-yl}-morpholin-4-yl-methanone] are 0.02 to 0.12 mg/mL (≈ 38.3 to 230 µM) and more than 0.2 µM.
In the same order, the values of `CCNCc1cncc(-c2ccc3[nH]nc(-c4nc(-c5ccccc5)c(C(=O)NCCCOC)[nH]4)c3c2)c1C` [Example 11, 2-[5-(5-Ethylaminomethyl-4-methyl-pyridin-3-yl)-1H-indazol-3-yl]-5-phenyl-3H-imidazole-4-carboxylic acid (3-methoxy-propyl)-amide] are more than 0.12 mg/mL and 0.05 to 0.2 µM.
`CCNCc1cncc(-c2ccc3[nH]nc(-c4nc(-c5ccccc5)c(C(=O)N(C)C5CCCCC5)[nH]4)c3c2)c1C` [Example 13, 2-[5-(5-Ethylaminomethyl-4-methyl-pyridin-3-yl)-1H-indazol-3-yl]-5-phenyl-3H-imidazole-4-carboxylic acid cyclohexyl-methyl-amide] came in with a solubility in data set [1] of 0.02 to 0.12 mg/mL (≈ 36.5 to 219 µM). Further, the Ki on CDK2/Cyclin A is more than 0.2 µM.
`CCNCc1cncc(-c2ccc3[nH]nc(-c4ncc(C(=O)N5CCN(c6ccccc6)CC5)[nH]4)c3c2)c1C` [Example 59, N-{[4-methyl-5-(3-{5-[(4-phenylpiperazin-1-yl)carbonyl]-1H-imidazol-2-yl}-1H-indazol-5-yl)pyridin-3-yl]methyl}ethanamine]: at CDK2/Cyclin A, the Ki is less than 0.05 µM.
For the molecule `CCNCc1cncc(-c2ccc3[nH]nc(-c4ncc(C(=O)N5C[C@@H](C)O[C@@H](C)C5)[nH]4)c3c2)c1C` [Example 60, N-({5-[3-(5-{[(2R,6S)-2,6-dimethylmorpholin-4-yl]carbonyl}-1H-imidazol-2-yl)-1H-indazol-5-yl]-4-methylpyridin-3-yl}methyl)ethanamine], the Ki at CDK2/Cyclin A was less than 0.05 µM.
On to `CCNCc1cncc(-c2ccc3[nH]nc(-c4ncc(C(=O)N5CCC(Oc6ccccc6)CC5)[nH]4)c3c2)c1C` [Example 70, N-{[4-methyl-5-(3-{5-[(4-phenoxypiperidin-1-yl)carbonyl]-1H-imidazol-2-yl}-1H-indazol-5-yl)pyridin-3-yl]methyl}ethanamine], for which the Ki on CDK2/Cyclin A is less than 0.05 µM.
With `CCNCc1cncc(-c2ccc3[nH]nc(-c4ncc(C(=O)N5CCN(CCOC)CC5)[nH]4)c3c2)c1C` [Example 78, N-({5-[3-(5-{[4-(2-methoxyethyl)piperazin-1-yl]carbonyl}-1H-imidazol-2-yl)-1H-indazol-5-yl]-4-methylpyridin-3-yl}methyl)ethanamine], the Ki at CDK2/Cyclin A is less than 0.05 µM.
Still for that read-out and setting: to `CCNCc1cncc(-c2ccc3[nH]nc(-c4ncc(C(=O)N5CCCC(Cc6ncccn6)CC5)[nH]4)c3c2)c1C` (centres unmarked) [Example 79, N-({4-methyl-5-[3-(5-{[4-(pyrimidin-2-ylmethyl)azepan-1-yl]carbonyl}-1H-imidazol-2-yl)-1H-indazol-5-yl]pyridin-3-yl}methyl)ethanamine] belongs less than 0.05 µM.
For `CCNCc1cncc(-c2ccc3[nH]nc(-c4ncc(C(=O)NCCC5=CCCCC5)[nH]4)c3c2)c1C` [Example 80, N-(2-cyclohex-1-en-1-ylethyl)-2-(5-{5-[(ethylamino)methyl]-4-methylpyridin-3-yl}-1H-indazol-3-yl)-1H-imidazole-5-carboxamide], on CDK2/Cyclin A, the Ki was less than 0.05 µM.
On the same count and under the same terms, to `CCNCc1cncc(-c2ccc3[nH]nc(-c4ncc(C(=O)N(CCN(C)C)Cc5ccccc5)[nH]4)c3c2)c1C` [Example 81, N-benzyl-N-[2-(dimethylamino)ethyl]-2-(5-{5-[(ethylamino)methyl]-4-methylpyridin-3-yl}-1H-indazol-3-yl)-1H-imidazole-5-carboxamide] belongs less than 0.05 µM.
Still for that read-out and setting: to `CCNCc1cncc(-c2ccc3[nH]nc(-c4ncc(C(=O)N(C)C5CCN(Cc6ccccc6)C5)[nH]4)c3c2)c1C` (centres unmarked) [Example 82, N-(1-benzylpyrrolidin-3-yl)-2-(5-{5-[(ethylamino)methyl]-4-methylpyridin-3-yl}-1H-indazol-3yl)-N-methyl-1H-imidazole-5-carboxamide] belongs less than 0.05 µM; to `CCNCc1cncc(-c2ccc3[nH]nc(-c4ncc(C(=O)N(C)C5CCN(C)C5)[nH]4)c3c2)c1C` (centres unmarked) [Example 84, 2-(5-{5-[(ethylamino)methyl]-4-methylpyridin-3-yl}-1H-indazol-3-yl)-N-methyl-N-(1-methylpyrrolidin-3-yl)-1H-imidazole-5-carboxamide], 0.05 to 0.2 µM; to `CCNCc1cncc(-c2ccc3[nH]nc(-c4ocnc4C)c3c2)c1C` [Example 88, N-({4-methyl-5-[3-(4-methyl-1,3-oxazol-5-yl)-1H-indazol-5-yl]pyridin-3-yl}methyl)ethanamine], more than 0.2 µM.
Regarding `CCNCc1cncc(-c2ccc3[nH]nc(-c4cc(C)n[nH]4)c3c2)c1C` [Example 89, Ethyl-{4-methyl-5-[3-(5-methyl-2H-pyrazol-3-yl)-1H-indazol-5-yl]-pyridin-3-ylmethyl}-amine], the Ki at CDK2/Cyclin A is less than 0.05 µM.
The same measure, in the same setting: to `CCNCc1cncc(-c2ccc3[nH]nc(-c4nnn[nH]4)c3c2)c1C` [Example 91, Ethyl-{4-methyl-5-[3-(1H-tetrazol-5-yl)-1H-indazol-5-yl]-pyridin-3-ylmethyl}-amine] belongs more than 0.2 µM; to `CCNCc1cncc(-c2ccc3[nH]nc(-c4nc(C)c[nH]4)c3c2)c1C` [Example 92, N-({4-methyl-5-[3-(4-methyl-1H-imidazol-2-yl)-1H-indazol-5-yl]pyridin-3-yl}methyl)ethanamine], less than 0.05 µM.
Take `CNCc1cncc(-c2ccc3[nH]nc(-c4nc(C)c[nH]4)c3c2)c1C` [Example 93, N-methyl-1-{4-methyl-5-[3-(4-methyl-1H-imidazol-2-yl)-1H-indazol-5-yl]pyridin-3-yl}methanamine]: on CDK2/Cyclin A, the Ki is less than 0.05 µM.
